Source: patent US20090136448A1, “Antiviral 2-Carboxy-Thiophene Compounds” (priority 2005, published 2009)

Assays:
[1] = system: HCV replication, genotype 1a (Huh-7 HCV replicon cell); assay: Replicon ELISA cell based assay, genotype 1a; conditions: Hepatitis C virus, Huh-7 HCV replicon cells, 72 hours, mean, assayed at least twice
Protocol: (§1) Replicon ELISA Cell Based Assay
(§2) 100 μL of medium containing 10% FCS were added to each well of clear, flat-bottomed 96 well microplates, excepting wells in the top row. Test compound was diluted in assay medium to twice the final required starting concentration from a 40 mM stock solution in DMSO. 200 μL of the starting dilution were introduced into two wells each in the top row and doubling dilutions made down the plate by the sequential transfer of 100 μL aliquots with thorough mixing in the wells; the final 100 μL were discarded. The two bottom rows were not used for compound dilutions. Huh-7 HCV replicon cell monolayers nearing confluency were stripped from growth flasks with versene-trypsin solution and the cells were resuspended in assay medium at either 2×10^5 cells/mL (sub-line 5-15; genotype 1b; Lohmann, V., Korner, F., Koch, J-O., Herian, U., Thielmann, L. and Bartenschlager, R., Science, 1999, 285, 110-113) or at 3×10^5 cells/mL (genotype 1a; Gu, B., Gates, A. T., Isken, O., Behrens, S. E. and Sarisky, R. T., J. Virol., 2003, 77, 5352-5359). 100 μL of cell suspension were added to all wells and the plates incubated at 37° C. for 72 hours in a 5% CO2 atmosphere.
(§3) Following incubation, the assay medium was aspirated from the plates. The cell sheets were washed by gentle immersion in phosphate buffered saline (PBS), which was then aspirated off, and fixed with acetone:methanol (1:1) for 5 minutes. Following a further wash with PBS, 100 μL of ELISA diluent (PBS+0.05% v/v Tween 20+2% w/v skimmed milk powder) were added to all wells and the plates incubated at 37° C. for 30 minutes on an orbital platform. The diluent was removed and each well then received 50 μL of a 1/200 dilution of anti-HCV specific, murine, monoclonal antibody (either Virostat #1872 or #1877), except for wells in one of the compound-free control rows which received diluent alone to act as negative controls. The plates were incubated at 37° C. for 2 hours and washed 3 times with PBS/0.05% Tween 20, then 50 μL of horseradish peroxidase conjugated, anti-mouse, rabbit polyclonal serum (Dako #P0260), diluted 1/1000, were added to all wells. The plates were incubated for a further hour, the antibody removed and the cell sheets washed 5 times with PBS/Tween and blotted dry. The assay was developed by the addition of 50 μL of ortho-phenylenediamine/peroxidase substrate in urea/citrate buffer (SigmaFast, Sigma #P-9187) to each well, and colour allowed to develop for up to 15 minutes. The reaction was stopped by the addition of 25 μL per well of 2 M sulphuric acid and the plates were read at 490 nm on a Fluostar Optima spectrophotometer.
(§4) The substrate solution was removed and the plates were washed in tap water, blotted dry and the cells stained with 5% carbol fuchsin in water for 30 minutes. The stain was discarded and the cell sheets washed, dried and examined microscopically to assess cytotoxicity.
(§5) The absorbance values from all compound-free wells that had received both primary and secondary antibodies were averaged to obtain a positive control value. The mean absorbance value from the compound-free wells that had not received the primary antibody was used to provide the negative (background) control value. The readings from the duplicate wells at each compound concentration were averaged and, after the subtraction of the mean background from all values, were expressed as a percentage of the positive control signal. The quantifiable and specific reduction of expressed protein detected by the ELISA in the presence of a drug can be used as a measure of replicon inhibition. GraFit software (Erithacus Software Ltd.) was used to plot the curve of percentage inhibition against compound concentration and derive the 50% inhibitory concentration (IC50) for the compound.

[2] = system: HCV replication, genotype 1b (Huh-7 HCV replicon cell, sub-line 5-15); assay: Replicon ELISA cell based assay, genotype 1b; conditions: Hepatitis C virus, Huh-7 HCV replicon cells, genotype 1b (sub-line 5-15), 72 hours, mean, assayed at least twice
Protocol: as §1, §2, §3, §4, §5

| SMILES | IC50 [1] [nM] | IC50 [2] [nM] |
| --- | --- | --- |
| CC(C)N(c1cc(-c2ccc(-c3cc4ncccn4n3)nc2)sc1C(=O)O)C(=O)[C@H]1CC[C@H](C)CC1 [Example 34, 3-[[(trans-4-Methylcyclohexyl)carbonyl](1-methylethyl)amino]-5-(6-pyrazolo[1,5-a]pyrimidin-2-yl-3-pyridinyl)-2-thiophenecarboxylic acid] | 10 to 50 | 50 to 100 |
| C[C@H]1CC[C@H](C(=O)N(CC2CC2)c2cc(-c3ccc(-c4cc5ncccn5n4)cc3)sc2C(=O)O)CC1 [Example 35, 3-{(Cyclopropylmethyl)[(trans-4-methylcyclohexyl)carbonyl]amino}-5-(4-pyrazolo[1,5-a]pyrimidin-2-ylphenyl)-2-thiophenecarboxylic acid] | 10 to 50 | 5 to 10 |
| CC(C)N(c1cc(-c2ccc(-c3cc4ncccn4n3)s2)sc1C(=O)O)C(=O)[C@H]1CC[C@H](C)CC1 [Example 36, 4-[[(trans-4-Methylcyclohexyl)carbonyl](1-methylethyl)amino]-5′-pyrazolo[1,5-a]pyrimidin-2-yl-2,2′-bithionhene-5-carboxylic acid] | 10 to 50 | 10 to 50 |
| CC(C)N(C(=O)[C@H]1CC[C@H](C)C[C@H]1O)c1cc(-c2ccc(-c3cc4ncccn4n3)cc2)sc1C(=O)O [Example 39, 3-[{[(1S,2R,4S)-2-Hydroxy-4-methylcyclohexyl]carbonyl}(1-methylethyl)amino]-5-(4-pyrazolo[1,5-a]pyrimidin-2-ylphenyl)-2-thiophenecarboxylic acid] | 10 to 50 | 5 to 10 |
| CCN(c1cc(-c2ccc(-c3cc4ncccn4n3)cc2)sc1C(=O)O)C(=O)[C@H]1CC[C@H](C)CC1 [Example 40, Ammonium 3-{ethyl[(trans-4-methylcyclohexyl)carbonyl]amino}-5-(4-pyrazolo[1,5-a]pyrimidin-2-ylphenyl)-2-thiophenecarboxylate] | 100 to 500 | 5 to 10 |
| CC(C)N(c1cc(-c2ccc(-c3ccc4[nH]ccc4c3)cc2)sc1C(=O)O)C(=O)[C@H]1CC[C@H](C)CC1 [Example 41, 5-[4-(1H-Indol-5-yl)phenyl]-3-[[(trans-4-methylcyclohexyl)carbonyl](1-methylethyl)amino]-2-thiophenecarboxylic acid] | 100 to 500 | 50 to 100 |
| CC(C)N(c1cc(-c2ccc(-c3ccc4cc[nH]c4c3)cc2)sc1C(=O)O)C(=O)[C@H]1CC[C@H](C)CC1 [Example 42, 5-[4-(1H-Indol-6-yl)phenyl]-3-[[(trans-4-methylcyclohexyl)carbonyl](1-methylethyl)amino]-2-thiophenecarboxylic acid] | 100 to 500 | 10 to 50 |
| CC(C)N(c1cc(-c2ccc(-c3cc4ncccc4o3)s2)sc1C(=O)O)C(=O)[C@H]1CC[C@H](C)CC1 [Example 43, 5′-Furo[3,2-b]pyridin-2-yl-4-[[(trans-4-methylcyclohexyl)carbonyl](1-methylethyl)amino]-2,2′-bithiophene-5-carboxylic acid] | 500 to 1000 | 50 to 100 |
| CC(C)N(c1cc(-c2ccc(-c3nc4ncccc4o3)nc2)sc1C(=O)O)C(=O)[C@H]1CC[C@H](C)CC1 [Example 46, 3-[[(trans-4-Methylcyclohexyl)carbonyl](1-methylethyl)amino]-5-(6-[1,3]oxazolo[4,5-b]pyridin-2-yl-3-pyridinyl)-2-thiophenecarboxylic acid] | 100 to 500 | 100 to 500 |
